{
  "source": "patent US20240287463A1",
  "about": "“INDUCIBLE TISSUE CONSTRUCTS AND USES THEREOF” (Massachusetts Institute of Technology, priority 2020, published 2024)",
  "key": {"iCasp9-GFP J2s": {"system": "iCasp9-GFP J2s", "assay": "cell viability / removal from monolayer culture (CellTiter-Glo)", "format": "cell-based", "settings": "after CID exposure (500 nM, 50 nM, 5 nM in FIG. 1G)", "from_the_text": "Inducible caspase-9 (iCasp9), which is activated by treatment with a small molecule chemical inducer of dimerization (CID; also known as rapalog, an analog of rapamycin) and leads to subsequent cell death through the intrinsic apoptosis pathway was utilized (FIG. 1A). The safety and efficacy of the iCasp9 transgene and CID have previously been shown in vitro and in vivo in animals and humans (A. Di Stasi, et al. (2011) dx.doi.org/10.1056/NEJMoa1106152; T. Gargett and M. P. Brown (2014) Front. Pharmacol. 5; K. C. Straathof, et al. (2005) Blood 105, 4247, each of which is herein incorporated by this reference). To generate inducible cells, 3T3-J2 fibroblasts (‘J2’) were transduced with lentivirus with a bidirectional expression cassette encoding iCasp9 and GFP genes (#15567 pMSCV-F-del Casp9.IRES.GFP; cloned to a lentivirus plasmid backbone with an SFFV promoter). FACS was used to enrich the infected population for the 15% highest-expression GFP+ cells. […]\nAfter iCasp9-GFP J2 fibroblasts were exposed to CID, iCasp9 dimers were detected by staining with a caspase-9 antibody (FIG. 1C). […] To confirm that CID-triggered caspase-9 activation led to apoptosis, unfixed cells were stained with Annexin V, which binds to an early indicator of apoptosis, and SYTOX, a general marker of cell death, and analyzed by flow cytometry."}, "HUVECs": {"system": "HUVECs", "assay": "vascular perfusion in tri-culture microfluidic devices", "format": "cell-based, human", "settings": "50 nM CID after 5 days of tri-culture", "from_the_text": "Given that fibroblasts are only transiently required for supporting the formation of a functional vasculature, it was investigated whether CAMEO could be used in the vascularization of tissue constructs with organ-specific parenchymal cells without negatively affecting the function of the parenchymal cells. To investigate this, a tri-culture system of HUVECs, iCasp9-HDFs, and primary human hepatocytes was employed in the microfluidic device. Using the methods described in Example 5, a solution of HUVECs (3 million cells/mL), iCasp-9 HDFs (total of 6 million cells/mL), hepatic aggregates (0.36 million aggregates/mL with about 150 hepatocytes per aggregate), fibrinogen (2.5 mg/mL), thrombin (1 U/mL) was made in a 1:1 mixed media of EGM-2 and hepatocyte maintenance media. After 5 days of tri-culture, the devices were treated with 50 nM CID to remove the iCasp9-HDFs, or with vehicle control. All samples were fixed at day 7 to evaluate vascular perfusion (FIG. 8A). […] To evaluate whether the hepatocytes remained functional after CID treatment, levels of albumin and urea, markers for hepatic protein synthesis function and nitrogen metabolism, respectively, were measured in the media."}, "[1]": {"system": "implanted hepatocyte tissue constructs", "assay": "human albumin in plasma of mice implanted with hepatocyte/iCasp9-HDF/HUVEC constructs (ELISA)", "format": "in vivo", "settings": "10 mg/kg on days 5 and 6 post-implantation, plasma at day 7", "procedure": "Following the confirmation of vessel maintenance and anastomosis and ability to induce death of implanted fibroblasts in vivo, hepatocyte function was evaluated in implanted hepatocyte tissue constructs. Specifically, mice were implanted with hepatocyte/iCasp9-HDF/HUVEC tissue constructs after in vitro culture for 7 days. Constructs were implanted in mouse fat pads as described above, and treated with 10 mg/kg CID or vehicle on days 5 and 6 post-implantation. At day 7, blood was collected and centrifuged to isolate plasma."}},
  "data": [
    {"molecule": "CC[C@H](C(=O)N1CCCC[C@H]1C(=O)O[C@H](CCc1ccc(OC)c(OC)c1)c1cccc(OCC(=O)NCC(CNC(=O)COc2cccc([C@@H](CCc3ccc(OC)c(OC)c3)OC(=O)[C@@H]3CCCCN3C(=O)[C@@H](CC)c3cc(OC)c(OC)c(OC)c3)c2)CN(C)C)c1)c1cc(OC)c(OC)c(OC)c1", "note": "[CID, AP20187]", "values": [
      {"measurement": "time to efficient removal from culture", "setting": "iCasp9-GFP J2s", "value": "≤ 1", "unit": "h"},
      {"measurement": "vascular perfusion at day 7", "setting": "HUVECs", "value": "formed perfusable vasculature"},
      {"measurement": "human albumin secretion compared to vehicle control and in vitro CID treated constructs", "setting": "[1]", "value": "similar"}
    ]}
  ]
}
